Data published in PMC3693772, “Protein expression, biochemical pharmacology of signal transduction, and relation to intraocular pressure modulation by bradykinin B2 receptors in ciliary muscle” (Molecular Vision, 2013).
“Also recorded” adds a separate entry of the source. Read-outs that look alike come from different tables or passages of the source.

How the values were obtained:
[1] = system: CHO-B2 cells; type: cell-based, Chinese hamster ovary cells, human cloned B2 receptor; conditions: 1 h at 37 °C; enzyme immunoassay; mean ± SEM, 3 to 6 experiments; read-out: PGF2α production in CHO-B2 cells (EC50)
Description: (§4) Measurement of prostaglandins in human ciliary muscle and Chinese hamster ovary cells expressing B2 receptors
(§5) This involved stimulating h-CM cells and CHO-B2 cells with various concentrations of test peptides and measuring the release of various PGs in the extracellular medium. The concentration-dependent effects of these peptides on total PGs, and specifically PGE2, PGF2α, and PGD2 release, were studied. Cells were grown as a monolayer in a 24-well plate (precoated with fibronectin) to confluence and subsequently serum-starved overnight before the experiment. On the day of the experiment, just before the drug was added, the wells were aspirated completely, and 990 µl basal medium and 10 µl 100× series of concentrations of the different peptide agonists were added to achieve the desired final concentrations of each compound (e.g., 0.1 nM to 10 µM). […] At the end of the incubation period, the cellular supernatants were collected and stored at −80 °C or used immediately to determine the PG content. Cell supernatants were tested for total PG levels and sub-species of PGs (PGE2, PGF2α, and PGD2) using specific competitive enzyme immunoassays (Cayman Chemical Co., Ann Arbor, MI) as directed in the manufacturer’s recommended protocols using the supplied standards and reagents. The limits of detection for various PGs were as follows: total PGs=29 pg/ml; PGE2=15 pg/ml; PGF2α=9 pg/ml; PGD2=200 pg/ml.

[2] = system: B2 subtype; design: method as in PMID 1313585; conditions: ref [1]; cited from earlier work
[3] = system: pro-MMP-2, h-CM cells; test: pro-MMP-2 release from h-CM cells; type: cell-based, human; conditions: BK 10 nM to 1 µM, 24 h at 37 °C; n=6
Description: (§1) Measurement of extracellular signal-regulated kinase-1/2 phosphorylation and pro-matrix metalloproteinase production
(§2) The release of pro-MMP-1/2/3 in the extracellular medium of h-CM cells exposed to kinin’s, for 24 h at 37 °C [29, 30] was studied next. Thus, h-CM cells isolated from multiple human donor eyes were cultured as described above and then serum-starved for 24 h prior to the addition of any test compound. Cells were incubated with the vehicle or test compound for 24 hours at 37 °C after which the medium was collected and concentrated ten-fold using Centricon concentrators (Millipore Corp., Bellireca, MA). Equal volumes of this concentrate were loaded on 10% SDS-polyacrylamide gels (SDS-PAGE) and the proteins separated and transferred to nitrocellulose membranes. The membranes were then blocked with 5% non-fat dry milk (Bio-Rad Laboratories, Hercules, CA) followed by incubation with antibodies to pro-MMP-1, pro-MMP-2, or pro-MMP-3 for 12 hours at 4 °C with gentle shaking. After washing, these membranes were incubated with appropriate secondary antibodies (HRP-conjugated; dilution 1:3000) for 1 hour at 20 °C. […] For chemiluminescent detection, the membranes were treated with enhanced chemiluminescent reagent (Amersham Pharmacia, Piscataway, NJ) and the signal was quantified using a Bio-Rad Versadoc imaging system (Bio-Rad Laboratories, Hercules, CA).

[4] = cited from earlier work
Description: (§3) Despite the presence of the kallikrein/kinin enzyme and receptor system in the h-CM tissue and cells, with B2-receptor immunoreactivity also found in the cynomolgus monkey CM (Figure 2B), the physiologic roles of BK and its receptors in this tissue and cells remain to be elucidated. Indeed, there are conflicting reports in the literature regarding the functions and involvement of BK in modulating IOP in various animal models.

[5] = system: albino rabbits; conditions: topical dosing, ref [8]; cited from earlier work
Description: as §3

[6] = system: isolated perfused human and bovine anterior eye segments; conditions: ref [15]; cited from earlier work
Description: as §3

[7] = system: isolated perfused bovine eyes; conditions: ref [16]; cited from earlier work
Description: as §3

[8] = system: cynomolgus monkey eyes; conditions: intracameral, ref [12], cited from earlier work
Description: as §3

[9] = system: pro-MMP-1, h-CM cells; test: pro-MMP-1 release from h-CM cells; type: cell-based, human; conditions: BK 10 nM to 1 µM, 24 h at 37 °C; n=6
Description: as §1, §2

[10] = system: certain endothelial and neuronal cells; conditions: ref [3],[28]; cited from earlier work
[11] = system: ERK1/2 phosphorylation, h-CM cells; test: ERK1/2 phosphorylation in h-CM cells (HTRF); type: cell-based, human; conditions: 100 nM
Description: as §1
In the current assay, an homogeneous-time-resolved fluorescence (HTRF) assay (CisBio; Bedford, MA) was used. The HTRF assay is based on a sandwich immunoassay using an antiphospho-ERK1/2 antibody labeled with D2 and an anti-ERK1/2 antibody labeled with Eu^3+-Cryptate. In brief, h-CM cells (passage 7) were cultured in 96-well half-area white plates and incubated overnight, at 37 °C in CO2 atmosphere. […] Lysis buffer provided in the HTRF kit was used to lyse the cells at 23 °C with shaking for 30 min after the agonist treatment. HTRF conjugates containing phospho-ERK1/2 antibodies were then added to the lysates and incubated for an additional 2 h at 23 °C. The fluorescence signal was recorded using a Tecan M1000 fluorescence plate reader ([…]) at 620 nm for the donor and 665 nm for the acceptor.

[12] = system: cynomolgus monkey eyes; test: IOP after topical ocular dosing in cynomolgus monkeys; type: in vivo; conditions: for IOP change (% of control) / IOP: 100 µg topical
Description: Intraocular pressure measurements
To extend our in vitro observations of the high density of B2-receptor protein in human and cynomolgus monkey ciliary muscle and non-pigmented ciliary epithelium, we studied the effects of topically administered BK (100 µg total dose in a sterile vehicle) on IOP in normotensive and TM-ablated hypertensive eyes of these animals. […] However, since we could not subject the monkeys to additional studies involving BK delivery to the eye interior, it was decided that intravitreal (ivt) injection of BK into pigmented Dutch-Belt rabbits would be worth pursuing. Thus, after light corneal anesthesia with 0.1% proparacaine, basal IOPs were determined in up to 10 Dutch-Belt rabbits using an Alcon Pneumotonometer (Alcon Laboratories Inc., Fort Worth, TX). After this time, 50 µg of BK (B2 agonist) or Des-Arg^9-BK (B1 agonist) in 20 µl of sterile basal salt solution (BSS plus), or just BSS plus vehicle, was injected ivt into one eye of each rabbit and the IOP determined at various times thereafter. Authors confirm adherence to the ARVO Statement for Animals in Ophthalmic and Vision Research, with all animal studies conducted according the guidelines for Animal Care and Use at Alcon Research Ltd.

[13] = system: human TM cells; conditions: ref [33]; cited from earlier work
[14] = system: B1 subtype; design: method as in PMID 1313585; conditions: ref [1]; cited from earlier work
[15] = system: h-CM cells; type: cell-based, human; conditions: 1 h at 37 °C; enzyme immunoassay; mean ± SEM, 3 to 6 experiments; read-out: PGF2α production in h-CM cells (EC50)
Description: as §4, §5

[16] = intracameral injection, ref [10],[14]
[17] = normal pressure eyes, 1 h, mean ± SEM, twelve monkeys
[18] = normal pressure eyes, 3 h, mean ± SEM, twelve monkeys
[19] = normal pressure eyes, 6 h, mean ± SEM, twelve monkeys
[20] = normal pressure eyes, 24 h, mean ± SEM, twelve monkeys
[21] = ocular hypertensive eyes, 1 h, mean ± SEM, twelve monkeys
[22] = ocular hypertensive eyes, 3 h, mean ± SEM, twelve monkeys
[23] = ocular hypertensive eyes, 6 h, mean ± SEM, twelve monkeys
[24] = ocular hypertensive eyes, 24 h, mean ± SEM, twelve monkeys

In the case of H-RPPGFSPFR-OH [BK], the EC50 [1] is listed as 0.0321 ± 0.0122 nM, the “Affinity for B2 subtype” value [2] is listed as “high affinity” and the “pro-MMP-2 release vs basal level” value [3] is listed as 1.67±0.25 fold. The IOP effect [4, 16] was “raised IOP”, the Pupil effect [4, 16] was “caused intense miosis” and the IOP effect ([4]; intravenous infusion, ref [9]) was “lowered IOP”. For the same substance, the “Aqueous humor inflow and outflow” value ([4]; ref [11]) was “increased aqueous humor inflow and outflow”, the IOP effect [5] was “lowered IOP” and the Outflow facility [6] was “decreased outflow facility”. For the same substance, the Outflow [7] was “apparent increase in outflow”, the Aqueous humor outflow ([8]; no ciliary muscle retrodisplacement) was “no effect on aqueous humor outflow” and the Aqueous humor outflow ([8]; with ciliary muscle retrodisplacement) was “decreased outflow”. For the same substance, the “pro-MMP-1 release vs basal level” value [9] was 3.12±0.46 fold, the “Production of NO and cGMP” value [10] was “can elicit production of NO and cGMP” and the “Increase in ERK1/2 phosphorylation (abstract)” value [11] was “twofold”. The “IOP effect of topical BK” value ([12]; 100 µg topical ocular, conscious cynomolgus monkeys, normotensive and hypertensive eyes) was “failed to alter IOP; also recorded: no remarkable changes in IOP; also recorded: no alteration in IOP; also recorded: failed to modulate IOP”, the “IOP change (% of control)” value ([12]; normal pressure eyes, 0 h (baseline)) was 0% and the IOP ([12]; normal pressure eyes, 0 h (baseline), mean ± SEM, twelve monkeys) was 27.1±1.0 mmHg. The IOP [12, 17] was 27.1±1.1 mmHg, the “IOP change (% of control)” value [12, 17] was 0.2±2.5% and the IOP [12, 18] was 26.6±0.7 mmHg. The “IOP change (% of control)” value [12, 18] was −1.0±2.9%, the IOP [12, 19] was 27.2±1.1 mmHg and the “IOP change (% of control)” value [12, 19] was 0.8±2.3%. The IOP [12, 20] was 27.8±1.4 mmHg, the “IOP change (% of control)” value [12, 20] was 2.4±3.3% and the “IOP change (% of control)” value ([12]; ocular hypertensive eyes, 0 h (baseline)) was 0%. The IOP ([12]; ocular hypertensive eyes, 0 h (baseline), mean ± SEM, twelve monkeys) was 36.8±1.6 mmHg, the IOP [12, 21] was 35.9±1.8 mmHg and the “IOP change (% of control)” value [12, 21] was −2.6±1.5%. The IOP [12, 22] was 35.7±1.6 mmHg, the “IOP change (% of control)” value [12, 22] was −2.7±3.3% and the IOP [12, 23] was 36.6±1.7 mmHg. The “IOP change (% of control)” value [12, 23] was −0.4±3.0%, the IOP [12, 24] was 35.3±1.6 mmHg and the “IOP change (% of control)” value [12, 24] was −4.1±2.3%. The “Production of PGs in human TM cells” value [13] was “produced various PGs”, the “Affinity for B1 subtype” value [14] was “low affinity” and the EC50 [15] was 15.9 ± 9.2 nM.
